According to patent publication US20080176898A1, “Phenyl Acetamides” (Bayer HealthCare AG, priority 2004, published 2008):

Tests used:
human CysLT1 receptor = target: T1, human CysLT1 receptor (Homo sapiens, UniProt Q9Y271); experiment: Cellular in vitro test to determine the CysLT1 activity (aequorin luminescence, CHO K1 cells); assay type: cell-based; conditions: recombinant CHO K1 cells with aequorin and human CysLT1 receptor; antagonism of LTD4 (3×10^−9 M) induced calcium release; 15 minutes preincubation
T1 construct: expressed in transfected cells; host or cells: CHO K1 cells constitutively expressing aequorin
T1 sequence (Q9Y271 1-337): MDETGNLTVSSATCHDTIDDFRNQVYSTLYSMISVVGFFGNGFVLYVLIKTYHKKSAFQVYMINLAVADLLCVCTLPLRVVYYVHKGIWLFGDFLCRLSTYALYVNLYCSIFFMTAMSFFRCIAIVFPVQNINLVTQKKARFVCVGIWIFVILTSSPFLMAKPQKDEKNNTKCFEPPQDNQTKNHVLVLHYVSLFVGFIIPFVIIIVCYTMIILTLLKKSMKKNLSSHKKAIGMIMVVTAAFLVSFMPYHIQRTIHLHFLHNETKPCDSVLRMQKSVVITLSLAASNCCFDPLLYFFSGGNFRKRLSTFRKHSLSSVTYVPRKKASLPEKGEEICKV
From the text: 2. Cellular In Vitro Test to Determine the CysLT1 Activity
A recombinant cell line is used to identify antagonists of the human cysteinyl-leukotriene 1 receptor (CysLT1R) and to quantify the activity of the substances described herein. The cell is originally derived from a hamster ovary epithelial cell (Chinese Hamster Ovary, CHO K1, ATCC: American Type Culture Collection, Manassas, Va. 20108, USA). The test cell line constitutively expresses the calcium-sensitive photoprotein aequorin which, after reconstitution with the cofactor coelenterazine, emits light when the cytoplasmic calcium concentration is increased (Rizzuto R, Simpson A W, Brini M, Pozzan T.; Nature 358 (1992) 325-327). The cell is additionally stably transfected with the human CysLT1 receptor (Lynch et al., Nature 399 (1999) 789-793). The resulting CysLT1R test cell responds to stimulation of the recombinant CysLT1 receptor (agonist: leukotriene D4 (LTD4)) with an intracellular release of calcium ions, which can be quantified through the resulting aequorin luminescence with a suitable luminometer (Milligan G, Marshall F, Rees S, Trends in Pharmacological Sciences 17 (1996) 235-237). Preincubation with antagonists of the CysLT1 receptor reduces the calcium release induced by the agonist LTD4 and thus the measured amount of light.
(§1) Test procedure: The cells are plated out two days before the test in culture medium (DMEM/F12 with Glutamax, Gibco Cat. #61965-026; 10% FCS, Gibco Cat. #10270-106; 1.4 mM sodium pyruvate, Gibco Cat. #11360-039; 1.8 mM sodium bicarbonate, Gibco Cat. #25080-060; 10 mM HEPES, Gibco Cat. #15290-026; now belongs to Invitrogen GmbH, 76131 Karlsruhe) in 384- (or 1536-)well microtiter plates and kept in a cell incubator (96% humidity, 5% v/v CO2, 37° C.). On the day of the test, the culture medium is replaced by Tyrode solution (in mM: 140 NaCl, 5 KCl, 1 MgCl2, 2 CaCl2, 20 glucose, 20 HEPES) which additionally contains the cofactor coelenterazine (50 μM), and the microtiter plate is then incubated for a further 3-4 hours. 15 minutes after the test substances have been transferred into the wells of the microtiter plate, the resulting light signal is measured after addition of the LID4 (3×10^−9 M) in the luminometer.

human CysLT2 receptor = target: T2, human CysLT2 receptor (Homo sapiens, UniProt Q9NS75); experiment: Cellular in vitro test to determine the CysLT2 activity (aequorin luminescence, CHO K1 cells); assay type: cell-based; conditions: recombinant CHO K1 cells with aequorin and human CysLT2 receptor; antagonism of LTD4 (3×10^−8 M) induced calcium release; 15 minutes preincubation
T2 construct: expressed in transfected cells; host or cells: CHO K1 cells constitutively expressing aequorin
T2 sequence (Q9NS75 1-346): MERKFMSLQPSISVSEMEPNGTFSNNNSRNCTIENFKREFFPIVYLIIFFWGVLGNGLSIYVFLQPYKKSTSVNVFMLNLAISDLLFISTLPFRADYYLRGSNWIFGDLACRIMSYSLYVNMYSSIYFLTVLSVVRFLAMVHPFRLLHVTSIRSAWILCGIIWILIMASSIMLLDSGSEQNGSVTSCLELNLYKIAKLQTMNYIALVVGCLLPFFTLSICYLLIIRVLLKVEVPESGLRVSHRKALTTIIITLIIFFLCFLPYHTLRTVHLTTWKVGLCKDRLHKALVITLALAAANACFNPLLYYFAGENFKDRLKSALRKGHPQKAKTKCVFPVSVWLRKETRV
From the text: 1. Cellular In Vitro Test to Determine the CysLT2 Activity
A recombinant cell line is used to identify antagonists of the human cysteinyl-leukotriene 2 receptor (CysLT2R) and to quantify the activity of the substances described herein. The cell is originally derived from a hamster ovary epithelial cell (Chinese Hamster Ovary, CHO K1, ATCC: American Type Culture Collection, Manassas, Va. 20108, USA). The test cell line constitutively expresses the calcium-sensitive photoprotein aequorin which, after reconstitution with the cofactor coelenterazine, emits light when the cytoplasmic calcium concentration is increased (Rizzuto R, Simpson A W, Brini M, Pozzan T.; Nature 358 (1992) 325-327). The cell is additionally stably transfected with the human CysLT2 receptor (Heise et.al., JBC 275 (2000) 30531-30536). The resulting CysLT2R test cell responds to stimulation of the recombinant CysLT2 receptor (agonists: leukotriene D4 (LTD4) and leukotriene C4 (LTC4)) with an intracellular release of calcium ions, which can be quantified through the resulting aequorin luminescence with a suitable luminometer (Milligan G, Marshall F, Rees S, Trends in Pharmacological Sciences 17 (1996) 235-237). Preincubation with antagonists of the CysLT2 receptor reduces the calcium release induced by the agonists LTD4 and LTC4 and thus the measured amount of light.
as §1, with “384-(or” for “384- (or”, “[…]” for “3-4”, “LTD4 (3×10^−8” for “LID4 (3×10^−9”

IC50 (human CysLT1 receptor) [nM]	IC50 (human CysLT2 receptor) [nM]	Compound
> 3000	70	O=C(O)c1ccc(OCCCc2ccc(OCCCC3CCCCC3)cc2)c(CC(=O)N2CCC(C(=O)O)CC2)c1 [Example 33, 1-[(5-Carboxy-2-{3-[4-(3-cyclohexylpropoxy)phenyl]propoxy}phenyl)acetyl]piperidine-4-carboxylic acid]
> 3000	75	O=C(O)CNC(=O)Cc1cc(C(=O)O)ccc1OCCCc1ccc(OCCCC2CCCCC2)cc1 [Example 45, 3-{2-[(Carboxymethyl)amino]-2-oxoethyl}-4-{3-[4-(3-cyclohexylpropoxy)phenyl]propoxy}-benzoic acid]
> 10000	45	O=C(O)CCCNC(=O)Cc1cc(C(=O)O)ccc1OCCCc1ccc(OCCCC2CCCCC2)cc1 [Example 31, 3-{2-[(3-Carboxypropyl)amino]-2-oxoethyl}-4-{3-[4-(3-cyclohexylpropoxy)phenyl]propoxy}-benzoic acid]

Compound	IC50 (human CysLT1 receptor) [nM]	IC50 (human CysLT2 receptor) [nM]
O=C(O)CCCNC(=O)Cc1cc(C(=O)O)ccc1OCCCc1ccc(OCCCCOc2ccccc2)cc1 [Example 13, 3-{2-[(3-Carboxypropyl)amino]-2-oxoethyl}-4-{3-[4-(4-phenoxybutoxy)phenyl]propoxy}benzoic acid]	> 10000	140
O=C(O)c1ccc(OCCCc2ccc(OCCCCOC3CCCCC3)cc2)c(CC(=O)N2CCCC(C(=O)O)C2)c1 (stereo not shown) [Example 25, 1-{[5-Carboxy-2-(3-{4-[4-(cyclohexyloxy)butoxy]phenyl}propoxy)phenyl]acetyl}piperidine-3-carboxylic acid]	> 10000	45
